Patent US6933272B1 (priority 1998, dated 2005)
“Also recorded” adds a separate entry of the source. Where two headings read alike, the source gives them in different places. Each block holds one compound with its values, some of them ahead of it.

What was measured:
[1] = molecular target: T1, insulin receptor β-subunit (Homo sapiens, UniProt P06213); experiment: Insulin receptor autophosphorylation (32P into 90 kDa band); type: biochemical
T1 construct: expressed in transfected cells
Procedure: After this preincubation, 2.5 μL of 1 mM ATP, 100 mM sodium orthovanadate and 5 μCi of [γ-^32P]ATP were added and incubated at room temperature for 25 minutes. The reaction was terminated by the addition of 1.5 μL of 0.5 M EDTA and 3.5 μL of 1.5 M NaCl. The solution was then either solubilised and resolved by SDS-PAGE or immunoprecipitated using anti-insulin Rβ (29B4) mouse monoclonal IgG or anti-phosphotyrosine (PY20) mouse monoclonal IgG (Santa Cruz Biotechnology Inc., USA), solubilised and then resolved by SDS-PAGE. Immunoprecipitation was performed by incubating one microgram of antibody with the reaction mixture over night at 4° C. […] The receptor-antibody-Sepharose complex was separated from the supernatant by centrifugation at 7,500 g for 5 minutes. The pellet was washed three times in TBS containing 0.1% Triton X-100 and 10 μL of 0.1 M glycine, pH 3.3 was added. The solution was then solubilised by incubation for 5 minutes at 100° C. in 10 μL of 80 mM Tris-HCl, pH 6.8 containing 0.45 M DTT, 56 mM EDTA, 30% sucrose and 6% SDS. Following centrifugation for 5 minutes at 7,500 g, the supernatant was resolved on a 7.5% SDS polyacrylamide gel. […] In some instances, gel bands corresponding to 90 kDa were excised and the associated radioactivity was measured by suspending the gel band in 2.5 mL of Scintillation fluid (Beckman) using a Beckman β-counter.

[2] = tested on: 3T3L1 adipocyte cells; experiment: Glucose transport (3H-deoxyglucose uptake) in 3T3L1 adipocyte cells; type: cell-based, mouse; conditions: for effect of compound alone on glucose transport: basal, no insulin
Procedure: Glucose transport was determined using a modification of the method of S. J. Isakoff et at. (23). The assay involved measuring the effect of compounds on the uptake of ^3H-deoxyglucose into 3T3L1 adipocyte cells.
The cell line, 3T3-L1, derived from mouse embryo fibroblasts, was grown in 250 mL tissue culture flasks containing 15 mL medium made up of DMEM (Dulbecco's modified Eagle's medium containing glutamine, 2 mM; sodium bicarbonate, 30 mM; penicillin 71.5 mg/litre; streptomycin, 152.5 mg/litre) supplemented with 10% foetal calf serum (FCS), pH 7.4. Cells were maintained in a humidified incubator at 37° C. in a 5% CO2 environment. The medium was changed every 3 days and the cells were split when they were about 70-80% confluent.
3T3-L1 fibroblast cells from one tissue culture flask were suspended in 50 mL of DMEM media containing 10% FCS and 0.5 mL of this suspension were seeded into each well of two 48-well tissue culture plates. The differentiation of the cells was initiated when the fibroblast cells were fully confluent. Routinely, differentiation was induced on cells that had been growing in tissue culture plates for 4-5 days. […] The cells were subsequently maintained with DMEM medium containing 10% FCS.
One day prior to the glucose transport assay, cell medium was replaced with DMEM containing 10% charcoal-treated foetal calf serum (CTFCS). On the day of the assay, the medium was aspirated and each well was washed with 1 mL of 25 mM Hepes, pH 7.4 containing 0.9% NaCl (NaCl-HEPES). […] Ten microlitres of NaCl-HEPES containing 3 mM 2-deoxy-D-glucose and 0.1 μCi 2-deoxy-D-[1-^3H]glucose were then added. Following a 10 min incubation at 37° C., the medium was aspirated off and the wells rapidly washed three times with 1 mL of ice-cold 50 mM phosphate, pH 7.5 containing 150 mM NaCl (PBS) and 10 mM glucose. Two hundred microlitres of 3% Triton X-100 was then added to each well and left to incubate for a minimum of 10 minutes. One hundred microlitres of the solubilised cells was then added to 2.5 mL of liquid scintillation fluid and counted for radioactivity in a Beckman β-counter.

[3] = molecular target: insulin receptor β-subunit associated tyrosine kinase activity (Homo sapiens, UniProt P06213); experiment: Protein tyrosine kinase (PTK) assay, 32P incorporation into FYF peptide; type: biochemical; conditions: for effect of compound alone on 32P incorporation into FYF peptide: basal, absence of insulin
Procedure: Protein tyrosine kinase activity was determined using a modification of the method of N. Konstantopoulos (22).
The reaction was allowed to proceed for 20 minutes at 30° C. before it was terminated by the addition of 12.5 μL of 7.5 M guanidine hydrochloride. An aliquot (10 μL) of the reaction mixture was then spotted onto a Whatman 81 phosphocellulose paper (15 mm×15 mm), washed three times (2 min per wash) in about 50 mL of 30% acetic acid, 0.05% orthophosphoric acid then finally, with one wash in about 200 mL of water. The papers were then rinsed briefly (15 sec) in 95% ethanol, dried, suspended in 2.5 mL of scintillation fluid (Beckman) and counted for radioactivity in a Beckman β-counter.

[4] = molecular target: T2, insulin receptor (Homo sapiens, UniProt P06213); experiment: 125I insulin binding to human placental plasma membranes (HPPM); set-up: Human Placental Plasma Membranes—50 mM Hepes, pH 7.8 @ 4 C containing 100 U/mL Bacitracin; from tissue; host or cells: human placenta, plasma membranes; conditions: human placental plasma membranes, 16 h at 4° C.
Procedure: (§1) Tubes were mixed and incubated for 16 h at 4° C. After the incubation, the tubes were placed on ice and 300 μL of a 1:5 suspension of 0.4% bovine-γ-globulin in 20% polyethyleneglycol 6000 (BDH chemicals) was added to each tube, mixed thoroughly and left to incubate for 30 min on ice. The tubes were then centrifuged (3,000 g) for 30 min at 4° C., the supernatant was aspirated off and the pellet counted for radioactivity. […] Inhibition constants were estimated by graphical analysis of displacement plots or calculated using the curve fitting programs EBDA and/or LIGAND.
Target sequence in this assay (P06213 28-758 limits assumed): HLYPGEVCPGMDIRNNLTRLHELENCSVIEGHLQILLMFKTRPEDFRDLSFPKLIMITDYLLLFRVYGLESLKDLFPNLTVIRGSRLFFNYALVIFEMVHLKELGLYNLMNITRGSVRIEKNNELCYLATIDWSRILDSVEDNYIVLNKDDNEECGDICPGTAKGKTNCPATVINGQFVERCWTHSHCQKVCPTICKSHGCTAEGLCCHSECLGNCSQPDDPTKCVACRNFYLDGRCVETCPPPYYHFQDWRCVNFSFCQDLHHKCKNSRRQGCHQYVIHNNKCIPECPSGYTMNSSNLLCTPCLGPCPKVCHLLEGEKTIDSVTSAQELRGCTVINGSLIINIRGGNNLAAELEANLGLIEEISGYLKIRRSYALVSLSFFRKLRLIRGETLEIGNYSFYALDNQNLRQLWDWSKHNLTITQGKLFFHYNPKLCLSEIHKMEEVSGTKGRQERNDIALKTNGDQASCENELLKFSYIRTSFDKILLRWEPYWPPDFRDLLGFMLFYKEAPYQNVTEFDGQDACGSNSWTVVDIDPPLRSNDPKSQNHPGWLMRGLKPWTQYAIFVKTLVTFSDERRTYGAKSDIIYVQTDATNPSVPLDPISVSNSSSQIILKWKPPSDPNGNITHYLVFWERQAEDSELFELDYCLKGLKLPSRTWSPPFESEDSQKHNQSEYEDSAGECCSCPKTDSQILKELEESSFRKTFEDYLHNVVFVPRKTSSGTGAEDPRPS

[5] = molecular target: T2, insulin receptor; experiment: Assays of insulin action (several biological assays, classification agonist/antagonist)
Target sequence in this assay (P06213 with tags, fused parts or gaps): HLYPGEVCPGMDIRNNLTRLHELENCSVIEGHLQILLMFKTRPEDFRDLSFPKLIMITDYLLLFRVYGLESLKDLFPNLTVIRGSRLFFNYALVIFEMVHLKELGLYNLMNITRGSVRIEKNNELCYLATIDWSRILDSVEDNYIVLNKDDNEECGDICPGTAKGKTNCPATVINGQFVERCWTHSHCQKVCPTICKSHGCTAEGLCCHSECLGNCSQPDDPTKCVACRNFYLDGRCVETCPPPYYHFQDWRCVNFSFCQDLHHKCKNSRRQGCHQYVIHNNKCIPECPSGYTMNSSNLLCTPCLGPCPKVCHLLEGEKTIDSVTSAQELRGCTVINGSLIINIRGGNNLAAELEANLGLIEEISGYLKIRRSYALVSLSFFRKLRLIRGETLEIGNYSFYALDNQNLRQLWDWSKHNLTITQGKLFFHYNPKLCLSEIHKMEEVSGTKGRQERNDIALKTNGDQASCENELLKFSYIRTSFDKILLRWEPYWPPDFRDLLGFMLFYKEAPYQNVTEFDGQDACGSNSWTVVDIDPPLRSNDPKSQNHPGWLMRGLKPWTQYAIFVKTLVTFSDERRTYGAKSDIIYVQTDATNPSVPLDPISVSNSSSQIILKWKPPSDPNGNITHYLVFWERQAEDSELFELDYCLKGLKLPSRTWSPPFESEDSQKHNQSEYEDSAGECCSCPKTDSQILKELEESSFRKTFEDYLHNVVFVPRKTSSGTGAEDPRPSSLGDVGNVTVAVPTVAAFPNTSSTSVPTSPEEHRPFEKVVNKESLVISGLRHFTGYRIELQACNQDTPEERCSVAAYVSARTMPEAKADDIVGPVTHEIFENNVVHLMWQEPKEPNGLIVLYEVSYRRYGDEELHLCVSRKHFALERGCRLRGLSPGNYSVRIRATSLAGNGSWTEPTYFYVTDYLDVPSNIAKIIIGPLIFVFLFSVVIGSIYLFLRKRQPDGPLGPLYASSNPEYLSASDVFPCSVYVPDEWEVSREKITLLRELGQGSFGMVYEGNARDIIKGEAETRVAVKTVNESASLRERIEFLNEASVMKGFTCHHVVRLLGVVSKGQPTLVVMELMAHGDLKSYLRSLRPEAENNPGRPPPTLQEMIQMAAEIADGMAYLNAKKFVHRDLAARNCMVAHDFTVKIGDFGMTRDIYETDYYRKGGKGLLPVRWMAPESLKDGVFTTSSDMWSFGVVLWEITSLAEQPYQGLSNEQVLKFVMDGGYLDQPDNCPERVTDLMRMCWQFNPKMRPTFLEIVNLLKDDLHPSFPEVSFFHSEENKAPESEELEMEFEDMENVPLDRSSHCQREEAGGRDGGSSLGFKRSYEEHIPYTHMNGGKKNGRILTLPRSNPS

[6] = molecular target: T2, insulin receptor; experiment: 125I insulin binding to wheat germ agglutinin purified insulin receptors (WGA.IR); set-up: host or cells: several: placental membranes, CHO.T11 cells, WGA purified receptors; conditions: LIGAND 1-site fit
Procedure: as §1
Target sequence in this assay (P06213 28-758 limits assumed): as the sequence (P06213 28-758 limits assumed) above

[7] = tested on: IGF-1 receptor; experiment: 125I IGF-1 binding to human placental plasma membranes (HPPM); conditions: same source of receptors (HPPM)
[8] = molecular target: T3, IGF-1 receptor (Homo sapiens, UniProt P08069); experiment: as above; set-up: from tissue; host or cells: human placenta, plasma membranes; conditions: HPPM
[9] = molecular target: T2, insulin receptor; experiment: 125I insulin binding, insulin receptors from a number of sources; set-up: host or cells: several: placental membranes, CHO.T11 cells, WGA purified receptors
Procedure: as §1
Target sequence in this assay (P06213 28-758 limits assumed): as above

[10] = tested on: streptozotocin induced diabetic mice; experiment: Blood glucose levels in streptozotocin induced diabetic mice; type: in vivo, mouse
Procedure: Six week old male CD-1 mice were injected intra peritoneally with a sterile solution of streptozotocin prepared in 100 mM citrate buffer, pH 4.65 at a dose of 200 mg/kg and an injection volume of 16.7 mL/kg. Mice were housed in a 12 h light/dark cycle and fed a normal chow diet ad libitum. Drinking water was supplemented with 5% sucrose for the first two days following streptozotocin injection before being replaced with tap water thereafter. After 4 days, blood was taken from the saphenous vein of the mice using the method of Hem, A et al. (26). Random non-fasting blood glucose levels were determined on venous blood using an esprit glucometer (Bayer). Mice with blood glucose levels of greater than 15 mmol/L were characterised as diabetic.
Blood glucose levels of mice were determined, followed by an intra peritoneal dose of IM compound dissolved in diluent (1.6% glycerin, 0. 25% m-cresol, pH 6.75). Mice were then bled periodically and whole blood glucose levels were determine using a one-touch esprit glucometer (Bayer).

[11] = molecular target: T4, IGF-1 receptors (Cricetulus griseus, UniProt A0A8C2N2R2); experiment: 125I IGF-1 binding to WGA purified receptor preparations from CHO wild-type cells
T4 construct: have high endogenous populations of IGF-1 receptors; endogenous in cells; host or cells: CHO wild-type cells, solubilised, WGA purified

[12] = molecular target: T3, IGF-1 receptor; experiment: Phosphorylation of immunoprecipitated IGF-1 receptors; type: biochemical; conditions: immunoprecipitated IGF-1 receptors free of insulin receptors
[13] = tested on: NIH 3T3 HIR3.5 cells; conditions: read-out: half maximal insulin concentration for stimulation of 3H-deoxyglucose; cited from earlier work

T3 sequence (P08069 31-736 limits assumed): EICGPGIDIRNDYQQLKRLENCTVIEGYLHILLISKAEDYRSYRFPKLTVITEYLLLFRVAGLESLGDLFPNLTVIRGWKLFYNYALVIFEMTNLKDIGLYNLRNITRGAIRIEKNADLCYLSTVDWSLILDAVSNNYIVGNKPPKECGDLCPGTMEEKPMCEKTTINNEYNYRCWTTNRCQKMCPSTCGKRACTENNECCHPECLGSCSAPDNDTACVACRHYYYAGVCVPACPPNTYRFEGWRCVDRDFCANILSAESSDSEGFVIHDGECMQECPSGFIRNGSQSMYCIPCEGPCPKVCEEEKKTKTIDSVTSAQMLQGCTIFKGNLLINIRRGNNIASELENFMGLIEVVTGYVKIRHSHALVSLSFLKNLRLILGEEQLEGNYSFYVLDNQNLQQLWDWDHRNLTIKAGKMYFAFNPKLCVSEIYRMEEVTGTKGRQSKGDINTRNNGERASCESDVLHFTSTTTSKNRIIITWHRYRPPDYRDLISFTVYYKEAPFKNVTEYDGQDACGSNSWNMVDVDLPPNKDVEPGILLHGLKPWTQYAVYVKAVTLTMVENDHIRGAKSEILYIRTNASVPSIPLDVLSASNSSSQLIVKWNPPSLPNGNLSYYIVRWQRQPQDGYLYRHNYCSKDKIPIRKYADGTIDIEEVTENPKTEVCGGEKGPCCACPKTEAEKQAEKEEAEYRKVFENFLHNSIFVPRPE
Chain of insulin receptor β-subunit associated tyrosine kinase activity (P06213 28-758 limits assumed): as the sequence (P06213 28-758 limits assumed) above
T1 sequence (P06213 28-758): as the sequence (P06213 28-758 limits assumed) above
T1 sequence (P06213 763-1382): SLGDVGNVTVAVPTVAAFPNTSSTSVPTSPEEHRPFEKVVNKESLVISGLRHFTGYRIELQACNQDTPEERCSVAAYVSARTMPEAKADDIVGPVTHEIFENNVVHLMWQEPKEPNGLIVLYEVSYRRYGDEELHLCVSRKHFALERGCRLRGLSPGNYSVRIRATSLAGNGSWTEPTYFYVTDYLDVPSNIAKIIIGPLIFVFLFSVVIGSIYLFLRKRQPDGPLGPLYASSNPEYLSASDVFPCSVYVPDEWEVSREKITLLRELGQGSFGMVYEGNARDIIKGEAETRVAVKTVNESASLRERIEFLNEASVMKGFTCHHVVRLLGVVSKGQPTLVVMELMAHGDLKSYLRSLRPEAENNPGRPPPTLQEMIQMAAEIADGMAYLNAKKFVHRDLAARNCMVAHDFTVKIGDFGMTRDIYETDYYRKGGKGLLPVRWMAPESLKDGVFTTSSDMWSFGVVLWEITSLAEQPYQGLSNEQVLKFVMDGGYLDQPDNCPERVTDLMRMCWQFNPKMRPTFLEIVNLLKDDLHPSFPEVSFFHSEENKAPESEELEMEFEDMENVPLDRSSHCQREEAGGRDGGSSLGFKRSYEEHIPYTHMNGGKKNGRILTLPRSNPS
T4 sequence (A0A8C2N2R2 31-1371): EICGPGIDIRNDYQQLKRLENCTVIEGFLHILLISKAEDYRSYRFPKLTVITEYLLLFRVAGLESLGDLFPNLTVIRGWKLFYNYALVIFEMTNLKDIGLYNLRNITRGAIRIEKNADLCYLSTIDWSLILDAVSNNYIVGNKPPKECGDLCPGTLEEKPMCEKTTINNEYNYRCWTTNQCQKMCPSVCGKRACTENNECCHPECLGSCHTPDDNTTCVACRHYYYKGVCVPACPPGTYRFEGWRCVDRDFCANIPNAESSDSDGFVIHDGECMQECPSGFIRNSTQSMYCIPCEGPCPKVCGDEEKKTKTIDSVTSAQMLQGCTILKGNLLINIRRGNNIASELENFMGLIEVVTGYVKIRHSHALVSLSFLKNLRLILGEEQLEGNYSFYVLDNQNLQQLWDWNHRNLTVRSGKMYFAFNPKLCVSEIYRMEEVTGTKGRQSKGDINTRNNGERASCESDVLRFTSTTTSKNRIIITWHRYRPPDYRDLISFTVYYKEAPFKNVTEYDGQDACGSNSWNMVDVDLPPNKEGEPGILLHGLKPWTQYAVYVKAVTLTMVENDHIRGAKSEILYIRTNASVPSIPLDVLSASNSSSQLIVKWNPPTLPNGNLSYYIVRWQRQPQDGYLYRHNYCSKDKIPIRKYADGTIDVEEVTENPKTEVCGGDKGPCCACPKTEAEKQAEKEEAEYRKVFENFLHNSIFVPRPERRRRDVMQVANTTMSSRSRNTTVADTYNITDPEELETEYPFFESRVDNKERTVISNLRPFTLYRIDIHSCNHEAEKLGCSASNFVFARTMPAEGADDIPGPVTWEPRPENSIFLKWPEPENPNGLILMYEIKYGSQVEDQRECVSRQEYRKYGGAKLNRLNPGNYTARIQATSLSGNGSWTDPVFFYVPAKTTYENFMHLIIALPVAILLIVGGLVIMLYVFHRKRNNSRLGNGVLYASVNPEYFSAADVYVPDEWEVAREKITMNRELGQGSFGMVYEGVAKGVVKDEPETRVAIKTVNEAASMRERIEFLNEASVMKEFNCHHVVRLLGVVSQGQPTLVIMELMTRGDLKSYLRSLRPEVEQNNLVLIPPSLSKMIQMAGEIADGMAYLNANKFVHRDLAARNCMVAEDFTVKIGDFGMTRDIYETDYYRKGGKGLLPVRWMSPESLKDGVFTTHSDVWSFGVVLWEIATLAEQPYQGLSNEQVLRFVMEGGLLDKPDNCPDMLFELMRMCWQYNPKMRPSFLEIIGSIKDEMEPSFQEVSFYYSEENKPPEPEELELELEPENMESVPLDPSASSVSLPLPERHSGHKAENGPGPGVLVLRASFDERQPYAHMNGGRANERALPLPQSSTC

Compound: 3,4-dihydro-7-[[6-(4-methoxyphenyl)hexenyl]oxy]-8-propyl-2H-1-benzopyran-2-carboxylic acid [IM 172]
- effect on 32P incorporation into insulin receptor β-subunit ([1]; basal): does not increase ^32P incorporation into FYF peptide or the insulin receptor β-subunit
- Ki ([2]; 3T3L1 cells, 2 nM insulin, read-out: estimated inhibition constant (Ki), glucose transport assay): 80 µM
- effect of compound alone on glucose transport [2]: does not activate glucose transport in 3T3L1 cells
- effect of compound alone on 32P incorporation into FYF peptide [3]: does not increase ^32P incorporation into FYF peptide
- Ki ([3]; inhibition of insulin stimulation, read-out: estimated inhibition constant, PTK assay): 80 µM
- Ki ([4]; read-out: apparent Ki (inhibition constant), competition for 125I insulin binding): 218 µM
- classification of insulin action [5]: antagonists of insulin action

- Ki [4]: 320 to 550 µM
- Ki [6]: 189 µM
- apparent Ki for 125I IGF-1 binding relative to Ki for 125I insulin binding [7]: approximately two fold higher
- classification of insulin action [5]: antagonists of insulin action
- IC50 ([5]; PTK and glucose transport (FIGS. 8 and 9), read-out: apparent IC50 in several biological assays): 30 to 200 µM
- Ki ([8]; read-out: apparent Ki, displacement of 125I IGF-1 binding): 800 to 1300 µM
Compound: CCCc1c(OCCCOc2ccc(C(C)=O)c(OC)c2CCC)ccc2c1OC(C(=O)O)CC2 (stereo not shown) [IM 129, 7-[3-(4-acetyl-3-methoxy-2-propylphenoxy)propoxy]-3,4-dihydro-8-propyl-2H-1-benzopyran-2-carboxylic acid]

- concentration of maximal 125I insulin binding [9]: 80 to 100 µM
- EC50 ([9]; read-out: apparent EC50 of increase in 125I insulin binding, low micromolar concentrations): 10 to 20 µM
- EC50 in vivo [10]: 15 µmol/kg
- effect on 125I IGF-1 binding [11]: does not compete for ^125I IGF-1 binding
- classification of insulin action [5]: agonists of insulin action
Compound: CCc1cc(-c2ccc(F)cc2)c(O)cc1OCCCOc1ccc2c(=O)c3cc(C(=O)O)ccc3oc2c1CCC(=O)O [IM 140, 3-[4-[7-carboxy-9-oxo-3-[3-[2-ethyl-4-(4-fluorophenyl)-5-hydroxyphenoxy]propoxy]-9H-xanthene]]propanoic acid]
- dose of peak activity, bi-phasic dose response in vivo [10]: 20 to 40 µmol/kg
- effect on blood glucose levels ([10]; 100 μmol/kg, preliminary studies): does not decrease blood glucose levels
- efficacy in lowering blood glucose relative to human insulin ([10]; dose of 35 μmol/kg, intra peritoneal): about 25%
- effect of compound alone on glucose transport [2]: activates glucose transport in 3T3L1 cells
- efficacy compared with insulin, glucose transport ([2]; compound alone, relative to maximal dose of insulin (100 nM)): 25-40%
- EC50 ([2]; compound alone, read-out: apparent EC50, stimulation of glucose transport): 20 to 30 µM
- EC50 ([2]; read-out: apparent EC50, glucose transport with sub-maximal insulin, in presence of 2 nM insulin): 8 µM
- glucose transport, % of maximal efficacy (100 nM insulin) ([2]; with 2 nM insulin, compound at 15 μM): 80%
- effect of compound alone on 32P incorporation into FYF peptide [3]: promotes the ATP-dependent phosphorylation of endogenous FYF peptide in a dose dependent manner
- effect on 125I IGF-1 binding [8]: does not compete for ^125I IGF-1 binding to HPPM; also recorded: promotes ^125I IGF-1 binding to HPPM

Compound: Cc1ccc(C(=O)Nc2ccc(S(=O)(=O)O)c3cc(S(=O)(=O)O)cc(S(=O)(=O)O)c23)cc1NC(=O)c1cccc(NC(=O)Nc2cccc(C(=O)Nc3cc(C(=O)Nc4ccc(S(=O)(=O)O)c5cc(S(=O)(=O)O)cc(S(=O)(=O)O)c45)ccc3C)c2)c1 [IM 175, 8,8′-[Carbonylbis[imino-3,1-phenylenecarbonylimino(4-methyl-3,1-phenylene)carbonylimino]]bis-1,3,5-naphthalenetrisulfonic acid]
- autophosphorylation of insulin receptor β-subunits, efficacy relative to insulin ([1]; relative to 100 nM dose of insulin, immunoprecipitated insulin receptors): about 65%
- EC50 ([2]; Mus musculus, 3T3-L1, compound alone, read-out: apparent EC50, stimulation of glucose transport): ~250 µM
- effect of compound alone on glucose transport [2]: levels approaching maximal stimulation by insulin
- Ki [4]: 46 to 48 µM
- classification of insulin action [5]: agonists of insulin action
- effect on IGF-1 receptor phosphorylation [12]: can also stimulate the IGF-1 receptor
- effect on IGF-1 receptor phosphorylation ([12]; listed as IM175): lower potency on IGF-1 receptors than it does on insulin receptors
- Ki ([8]; read-out: Ki, competition for 125I IGF-1 binding): 9 µM

Compound: insulin: peptidyl ligand; the most important regulatory hormone involved in maintaining glucose homeostasis
- EC50 [13]: 0.0001 µM
